Legend:
Test in all cases: relative viability (nuclei count vs DMSO), 5 days (fraction); higher = more cells survive
BX 795 + Bortezomib = compound: O=C(NCCCNc1nc(Nc2cccc(NC(=O)N3CCCC3)c2)ncc1I)c1cccs1 [BX 795] + CC(C)C[C@H](NC(=O)[C@H](Cc1ccccc1)NC(=O)c1cnccn1)B(O)O [Bortezomib] (partner 0.002 µM)
Summary of the method: (§1)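 Relative viability is defined as nuclei in treated wells over nuclei in vehicle wells. Duplicate plates were run and medians reported. Lung cancer cell lines in 1536-well plates were dosed by pin tool one day after seeding, with one drug or with a fixed anchor-drug dose plus five library-drug doses (not always all listed) in √10 steps, and nuclei were counted after 5 days.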

BX 795 + Navitoclax = compound: O=C(NCCCNc1nc(Nc2cccc(NC(=O)N3CCCC3)c2)ncc1I)c1cccs1 [BX 795] + CC1(C)CCC(c2ccc(Cl)cc2)=C(CN2CCN(c3ccc(C(=O)NS(=O)(=O)c4ccc(N[C@H](CCN5CCOCC5)CSc5ccccc5)c(S(=O)(=O)C(F)(F)F)c4)cc3)CC2)C1 [Navitoclax] (partner 0.5 µM)
Summary of the method: as §1

BX 795 + Tozasertib = compound: O=C(NCCCNc1nc(Nc2cccc(NC(=O)N3CCCC3)c2)ncc1I)c1cccs1 [BX 795] + Cc1cc(Nc2cc(N3CCN(C)CC3)nc(Sc3ccc(NC(=O)C4CC4)cc3)n2)n[nH]1 [Tozasertib] (partner 0.1 µM)
Summary of the method: as §1

BX 795 + Alpelisib = compound: O=C(NCCCNc1nc(Nc2cccc(NC(=O)N3CCCC3)c2)ncc1I)c1cccs1 [BX 795] + Cc1nc(NC(=O)N2CCC[C@H]2C(N)=O)sc1-c1ccnc(C(C)(C)C(F)(F)F)c1 [Alpelisib] (partner 2 µM)
Summary of the method: as §1

BX 795 + Decitabine = compound: O=C(NCCCNc1nc(Nc2cccc(NC(=O)N3CCCC3)c2)ncc1I)c1cccs1 [BX 795] + Nc1ncn([C@H]2C[C@H](O)[C@@H](CO)O2)c(=O)n1 [Decitabine] (partner 2 µM)
Summary of the method: as §1

Row | Cell Line | relative viability (BX 795 + Bortezomib; first compound 0.04 µM) | relative viability (BX 795 + Bortezomib; first compound 0.1265 µM) | relative viability (BX 795 + Bortezomib; first compound 0.4 µM) | relative viability (BX 795 + Bortezomib; first compound 1.265 µM) | relative viability (BX 795 + Navitoclax; first compound 0.04 µM) | relative viability (BX 795 + Navitoclax; first compound 0.1265 µM) | relative viability (BX 795 + Navitoclax; first compound 0.4 µM) | relative viability (BX 795 + Navitoclax; first compound 1.265 µM) | relative viability (BX 795 + Tozasertib; first compound 0.04 µM) | relative viability (BX 795 + Tozasertib; first compound 0.1265 µM) | relative viability (BX 795 + Tozasertib; first compound 0.4 µM) | relative viability (BX 795 + Tozasertib; first compound 1.265 µM) | relative viability (BX 795 + Alpelisib; first compound 0.04 µM) | relative viability (BX 795 + Alpelisib; first compound 0.1265 µM) | relative viability (BX 795 + Alpelisib; first compound 0.4 µM) | relative viability (BX 795 + Alpelisib; first compound 1.265 µM) | relative viability (BX 795 + Decitabine; first compound 0.04 µM) | relative viability (BX 795 + Decitabine; first compound 0.4 µM) | relative viability (BX 795 + Decitabine; first compound 1.265 µM) | relative viability (BX 795 + Decitabine; first compound 0.1265 µM)
1 | PC-3 [JPC-3] | 0.768 | 0.822 | 0.86 | 0.861 | 0.864 | 0.838 | 0.905 | 0.75 | 0.931 | 0.851 | 0.881 | 0.872 | 1.02 | 1.03 | 1.15 | 1.02 | 0.834 | 0.907 | 0.725 | 
2 | PC-14 | 0.866 | 0.978 | 0.875 | 0.582 | 0.976 | 0.988 | 1.08 | 0.795 | 0.619 | 0.595 | 0.47 | 0.427 | 0.955 | 0.939 | 0.918 | 0.813 | 0.226 | 0.17 | 0.178 | 0.211
3 | RERF-LC-KJ | 1.09 | 1.23 | 1.14 | 1.02 | 0.759 | 0.93 | 0.771 | 0.881 | 0.599 | 0.501 | 0.445 | 0.217 | 0.73 | 0.938 | 0.818 | 0.742 | 0.762 | 0.792 | 0.56 | 0.759
4 | SK-LU-1 | 0.902 | 1.12 |  | 0.708 | 0.702 | 0.915 | 0.553 | 0.724 | 0.312 | 0.356 |  | 0.211 | 1.03 | 0.946 | 0.672 | 0.479 | 0.676 | 0.505 | 0.601 | 0.679
5 | SW 1573 | 1.11 | 1.21 | 1.29 | 0.877 | 0.886 | 1.13 | 1.12 | 0.837 | 0.209 | 0.185 | 0.142 | 0.155 | 0.766 | 0.734 | 1.01 | 0.674 | 0.651 | 0.581 | 0.381 | 0.652
6 | UMC-11 | 0.678 | 0.983 | 0.847 | 0.36 | 0.321 | 0.347 | 0.326 | 0.17 | 0.189 | 0.195 | 0.185 | 0.22 | 1.02 | 1.14 | 1.02 | 0.354 | 0.457 | 0.436 | 0.593 | 0.688

From the supplement of paper PMC10307832
